Measurements taken from publication PMC9502539, “1,2,3-Triazole-Benzofused Molecular Conjugates as Potential Antiviral Agents against SARS-CoV-2 Virus Variants” (Life, 2022).
≈ marks a conversion by molar mass, not a printed value.

How the values were obtained:
SARS-CoV-2 spike protein = target: T1, SARS-CoV-2 spike protein (Severe acute respiratory syndrome coronavirus 2, UniProt P0DTC2); experiment: biochemical; type: binding; conditions: read-out: remaining activity % of SARS-CoV-2 spike proteins; for remaining activity at 0.1 µM: tested concentration 100 nM; for remaining activity at 0.2 µM: tested concentration 200 nM; for remaining activity at 0.5 µM: tested concentration 500 nM; for remaining activity at 0.75 µM: tested concentration 750 nM; for remaining activity at 1 µM: tested concentration 1000 nM
T1 construct: purchased Biosource, Muskego, WI, USA

SARS-CoV-2 [1] = experiment: microbe, parasite or virus in culture; type: cell-based; conditions: for EC50: Severe acute respiratory syndrome coronavirus 2, Vero C1008
in vitro = conditions: African green monkey
SARS-CoV-2 [2] = conditions: cited from earlier work
IL-1β = experiment: Proinflammatory cytokine production (ELISA) in infected cells; type: cell-based; conditions: infected cells treated with compound vs infected untreated
IL-6 = experiment: as above; type: cell-based; conditions: infected cells treated with compound vs infected untreated

Compound | remaining activity at 0.1 µM (SARS-CoV-2 spike protein) | remaining activity at 0.2 µM (SARS-CoV-2 spike protein) | remaining activity at 0.5 µM (SARS-CoV-2 spike protein) | remaining activity at 0.75 µM (SARS-CoV-2 spike protein) | remaining activity at 1 µM (SARS-CoV-2 spike protein) | Selectivity Index (SI) (SARS-CoV-2 [1]) | EC50 (SARS-CoV-2 [1]) | CC50 (in vitro) | antiviral activity against SARS-CoV-2 (SARS-CoV-2 [2]) | IL-1β protein expression level (IL-1β) | IL-6 protein expression level (IL-6)
CC(C)(O/N=C(\C(=O)N[C@@H]1C(=O)N2C(C(=O)[O-])=C(C[n+]3ccccc3)CS[C@H]12)c1csc(N)n1)C(=O)O [Ceftazidime, ceftazidime, reference compound] | 99% | 79% | 59% | 55.1% | 45.2% | 12.29 | 85.1 µg/mL (≈ 156 µM) | 1050 µg/mL (≈ 1910 µM) |  |  | 
Fc1ccc2nc(C(F)(F)F)cc(OCc3cn(-c4ccccc4Cl)nn3)c2c1 [10 g, 4-((1-(2-chlorophenyl)-1H-1,2,3-triazol-4-yl)methoxy)-6-fluoro-2-(trifluoromethyl)quinoline] |  |  |  |  |  |  |  |  | high antiviral activity |  | 
O=C(Cn1cc(CSc2nc3ccccc3n2Cc2cn(CC(=O)NNC(=S)Nc3ccccc3)nn2)nn1)NNC(=S)Nc1ccccc1 [compound 4] | 74.6% | 46% | 21.9% | 20% | 18% | 10.90 | 174 µg/mL (≈ 240 µM) | 1900 µg/mL (≈ 2610 µM) |  |  | 
Cc1ccc2nc(NC(=O)Cn3cc(CN4C(=O)C(=O)c5ccccc54)nn3)sc2c1 [compound 12] | 95.9% | 92.5% | 82% | 82% | 70% | 0.87 | 382 µg/mL (≈ 882 µM) | 332 µg/mL (≈ 767 µM) |  |  | 
S=c1[nH]nc(Cn2cc(CSc3nc4ccccc4n3Cc3cn(Cc4n[nH]c(=S)n4-c4ccccc4)nn3)nn2)n1-c1ccccc1 [compound 6] | 79.9% | 65.4% | 38.2% | 27% | 20% | 6.87 | 155 µg/mL (≈ 224 µM) | 1070 µg/mL (≈ 1540 µM) |  |  | 
Nn1c(Cn2cc(CSc3nc4ccccc4n3Cc3cn(Cc4n[nH]c(=S)n4N)nn3)nn2)n[nH]c1=S [compound 7] | 86.1% | 77.2% | 58.6% | 44% | 40% | 5.0 | 306 µg/mL (≈ 538 µM) | 1530 µg/mL (≈ 2690 µM) |  |  | 
O=C(Cn1cc(CSc2nc3ccccc3n2Cc2cn(CC(=O)NNC(=S)Nc3ccc(F)cc3)nn2)nn1)NNC(=S)Nc1ccc(F)cc1 [compound 5] | 83.8% | 70.2% | 45.8% | 32% | 26% | 8.82 | 231 µg/mL (≈ 303 µM) | 2040 µg/mL (≈ 2670 µM) |  |  | 
Cc1onc(NS(=O)(=O)c2ccc(-n3cc(CSc4nc5ccccc5n4Cc4cn(-c5ccc(S(=O)(=O)Nc6noc(C)c6C)cc5)nn4)nn3)cc2)c1C [compound 9] | 67.1% | 32.7% | 11.4% | 12% | 5% |  | 80.4 µg/mL (≈ 98.9 µM) | 1030 µg/mL (≈ 1260 µM) |  | noticeably reduced | noticeably reduced
COc1ccc(-n2cc(CCOc3cc(C(F)(F)F)nc4ccc(F)cc34)nn2)cc1 [12c, 6-fluoro-4-(2-(1-(4-methoxyphenyl)-1H-1,2,3-triazol-4-yl)ethoxy)-2-(trifluoromethyl)quinoline] |  |  |  |  |  |  |  |  | high antiviral activity |  | 
